Measured values from ChEMBL document CHEMBL1121678, “Antitumor agents. 44. Bis(helenalinyl) esters and related derivatives as novel potent antileukemic agents” (1981).

Tests used:
Format in all cases: functional
Mus musculus [1] = experiment: Antileukemic activity of compound against the P-388 lymphocytic leukemic BDF1 male mice at 0.6(mg/kg)/day, administered intraperitoneally; 11.0/9.66 (Treated/control)
Mus musculus [2] = experiment: In vivo antileukemic activity against P-388 lymphocytic leukemia in BDF1 male mice at 0.6(mg/kg)/day intraperitoneal dose expressed as T/C
Mus musculus [3] = experiment: Antileukemic activity of compound against the P-388 lymphocytic leukemic BDF1 male mice at 2(mg/kg)/day, administered intraperitoneally; 11.6/9.66 (Treated/control)
Mus musculus [4] = experiment: In vivo antileukemic activity against P-388 lymphocytic leukemia in BDF1 male mice at 30(mg/kg)/day intraperitoneal dose expressed as T/C
Mus musculus [5] = experiment: In vivo antileukemic activity against P-388 lymphocytic leukemia in BDF1 male mice at 60 mg/kg/day intraperitoneal dose expressed as T/C
Mus musculus [6] = experiment: Antileukemic activity of compound against the P-388 lymphocytic leukemic BDF1 male mice at 15(mg/kg)/day, administered intraperitoneally; 13.6/9.66 (Treated/control)
Mus musculus [7] = experiment: In vivo antileukemic activity against P-388 lymphocytic leukemia in BDF1 male mice at 15(mg/kg)/day intraperitoneal dose expressed as T/C
Mus musculus [8] = experiment: Antileukemic activity of compound against the P-388 lymphocytic leukemic BDF1 male mice at 30(mg/kg)/day, administered intraperitoneally; 15.2/9.66 (Treated/control)
Mus musculus [9] = experiment: In vivo antileukemic activity against P-388 lymphocytic leukemia in BDF1 male mice at 4(mg/kg)/day intraperitoneal dose expressed as T/C
Mus musculus [10] = experiment: In vivo antileukemic activity against P-388 lymphocytic leukemia in BDF1 male mice at 2(mg/kg)/day intraperitoneal dose expressed as T/C
Mus musculus [11] = experiment: Antileukemic activity of compound against the P-388 lymphocytic leukemic BDF1 male mice at 4(mg/kg)/day, administered intraperitoneally; 11.0/9.66 (Treated/control)
Mus musculus [12] = experiment: Antileukemic activity of compound against the P-388 lymphocytic leukemic BDF1 male mice at 60 mg/kg/day, administered intraperitoneally; 12.6/9.66 (Treated/control); settings: route intraperitoneal
Mus musculus [13] = experiment: Antileukemic activity of compound against the P-388 lymphocytic leukemic BDF1 male mice at 8(mg/kg)/day, administered intraperitoneally; 14.0/9.66 (Treated/control)
Mus musculus [14] = experiment: Antileukemic activity of compound against the P-388 lymphocytic leukemic BDF1 male mice at 60 mg/kg/day, administered intraperitoneally; 12.7/9.66 (Treated/control); settings: route intraperitoneal
Mus musculus [15] = experiment: Antileukemic activity of compound against the P-388 lymphocytic leukemic BDF1 male mice at 30(mg/kg)/day, administered intraperitoneally; 15.4/9.66 (Treated/control)
Mus musculus [16] = experiment: Antileukemic activity of compound against the P-388 lymphocytic leukemic BDF1 male mice at 15(mg/kg)/day, administered intraperitoneally; 18.7/9.66 (Treated/control)
Mus musculus [17] = experiment: In vivo antileukemic activity against P-388 lymphocytic leukemia in BDF1 male mice at 8(mg/kg)/day intraperitoneal dose expressed as T/C
Mus musculus [18] = experiment: In vivo antileukemic activity against P-388 lymphocytic leukemia in BDF1 male mice at 25(mg/kg)/day intraperitoneal dose expressed as T/C
Mus musculus [19] = experiment: Antileukemic activity of compound against the P-388 lymphocytic leukemic BDF1 male mice at 8(mg/kg)/day, administered intraperitoneally; […]/[…] (Treated/control)
Mus musculus [20] = experiment: Antileukemic activity of compound against the P-388 lymphocytic leukemic BDF1 male mice at 15(mg/kg)/day, administered intraperitoneally; 11.4/9.66 (Treated/control)
Mus musculus [21] = experiment: Antileukemic activity of compound against the P-388 lymphocytic leukemic BDF1 male mice at 25(mg/kg)/day, administered intraperitoneally; 13.3/9.66 (Treated/control)
Mus musculus [22] = experiment: Antileukemic activity of compound against the P-388 lymphocytic leukemic BDF1 male mice at 15(mg/kg)/day, administered intraperitoneally; 11.0/9.66 (Treated/control)
Mus musculus [23] = experiment: Antileukemic activity of compound against the P-388 lymphocytic leukemic BDF1 male mice at 0.6(mg/kg)/day, administered intraperitoneally; 11.6/9.66 (Treated/control)
Mus musculus [24] = experiment: Antileukemic activity of compound against the P-388 lymphocytic leukemic BDF1 male mice at 8(mg/kg)/day, administered intraperitoneally; 13.8/9.66 (Treated/control)
Mus musculus [25] = experiment: Antileukemic activity of compound against the P-388 lymphocytic leukemic BDF1 male mice at 30(mg/kg)/day, administered intraperitoneally; 16.2/9.66 (Treated/control)
Mus musculus [26] = experiment: In vivo antileukemic activity against P-388 lymphocytic leukemia in BDF1 male mice at 3(mg/kg)/day intraperitoneal dose expressed as T/C
Mus musculus [27] = experiment: Antileukemic activity of compound against the P-388 lymphocytic leukemic BDF1 male mice at 3(mg/kg)/day, administered intraperitoneally; 13.8/9.66 (Treated/control)
Mus musculus [28] = experiment: Antileukemic activity of compound against the P-388 lymphocytic leukemic BDF1 male mice at 60 mg/kg/day, administered intraperitoneally; 5.8/9.66 (Treated/control); settings: route intraperitoneal
Mus musculus [29] = experiment: Antileukemic activity of compound against the P-388 lymphocytic leukemic BDF1 male mice at 15(mg/kg)/day, administered intraperitoneally; 25.2/9.66 (Treated/control)
Mus musculus [30] = experiment: Antileukemic activity of compound against the P-388 lymphocytic leukemic BDF1 male mice at 15(mg/kg)/day, administered intraperitoneally; 11.1/9.66 (Treated/control)
Mus musculus [31] = experiment: In vivo antileukemic activity against P-388 lymphocytic leukemia in BDF1 male mice at 5(mg/kg)/day intraperitoneal dose expressed as T/C
Mus musculus [32] = experiment: Antileukemic activity of compound against the P-388 lymphocytic leukemic BDF1 male mice at 5(mg/kg)/day, administered intraperitoneally; 11.8/9.66 (Treated/control)
Mus musculus [33] = experiment: Antileukemic activity of compound against the P-388 lymphocytic leukemic BDF1 male mice at 15(mg/kg)/day, administered intraperitoneally (Treated/control)
Mus musculus [34] = experiment: Antileukemic activity of compound against the P-388 lymphocytic leukemic BDF1 male mice at 8(mg/kg)/day, administered intraperitoneally; 11.8/9.66 (Treated/control)
Mus musculus [35] = experiment: Antileukemic activity of compound against the P-388 lymphocytic leukemic BDF1 male mice at 15(mg/kg)/day, administered intraperitoneally; 13.2/9.66 (Treated/control)
Mus musculus [36] = experiment: Antileukemic activity of compound against the P-388 lymphocytic leukemic BDF1 male mice at 25(mg/kg)/day, administered intraperitoneally; 10.6/9.66 (Treated/control)
Mus musculus [37] = experiment: Antileukemic activity of compound against the P-388 lymphocytic leukemic BDF1 male mice at 0.6(mg/kg)/day, administered intraperitoneally; 11/9.66 (Treated/control)

O=C(O)CC(=O)O [MALONIC ACID]
Average survival (days) (Mus musculus [1]): 11
T/C (Mus musculus [2]): 114%

C=C1C(=O)O[C@@H]2C[C@@H](C)[C@@H]3CCC(=O)[C@@]3(C)[C@@H](OC(=O)CCC(=O)O[C@H]3[C@@H]4C(=C)C(=O)O[C@@H]4C[C@@H](C)[C@@H]4CCC(=O)[C@]43C)[C@H]12
Average survival (days) (Mus musculus [3]): 11.6
T/C (Mus musculus [4]): 157%
T/C (Mus musculus [5]): 130%
Average survival (days) (Mus musculus [6]): 13.6
T/C (Mus musculus [7]): 141%
Average survival (days) (Mus musculus [8]): 15.2
T/C (Mus musculus [9]): 114%
T/C (Mus musculus [10]): 120%
Average survival (days) (Mus musculus [11]): 11
Average survival (days) (Mus musculus [12]): 12.6

C[C@@H]1C[C@H]2OC(=O)[C@@H](C)[C@H]2[C@H](OC(=O)CCC(=O)O[C@H]2[C@@H]3[C@H](C)C(=O)O[C@@H]3C[C@@H](C)[C@@H]3C=CC(=O)[C@]32C)[C@]2(C)C(=O)C=C[C@@H]12
Average survival (days) (Mus musculus [13]): 14
T/C (Mus musculus [4]): 159%
Average survival (days) (Mus musculus [14]): 12.7
Average survival (days) (Mus musculus [15]): 15.4
Average survival (days) (Mus musculus [16]): 18.7
T/C (Mus musculus [17]): 145%
T/C (Mus musculus [5]): 131%
T/C (Mus musculus [7]): 194%

C[C@@H]1C[C@H]2OC(=O)[C@@H](C)[C@H]2[C@H](O)[C@]2(C)C(=O)C=C[C@@H]12
T/C (Mus musculus [17]): 111%
T/C (Mus musculus [18]): 138%
T/C (Mus musculus [7]): 118%
Average survival (days) (Mus musculus [19]): 10.7
Average survival (days) (Mus musculus [20]): 11.4
Average survival (days) (Mus musculus [21]): 13.3

C=C1C(=O)O[C@@H]2C[C@@H](C)[C@@H]3CCC(=O)[C@@]3(C)[C@@H](OC(=O)CC(=O)OCC)[C@H]12
T/C (Mus musculus [5]): 114%
Average survival (days) (Mus musculus [22]): 11

CCOC(=O)CCC(=O)OCC [SUCCINIC ACID DIETHYL ESTER]
Average survival (days) (Mus musculus [23]): 11.6
T/C (Mus musculus [5]): 120%

C=C1C(=O)O[C@@H]2C[C@@H](C)[C@@H]3C=CC(=O)[C@@]3(C)[C@@H](OC(=O)CC(=O)O[C@H]3[C@@H]4C(=C)C(=O)O[C@@H]4C[C@@H](C)[C@@H]4C=CC(=O)[C@]43C)[C@H]12
Average survival (days) (Mus musculus [24]): 13.8
Average survival (days) (Mus musculus [25]): 16.2
T/C (Mus musculus [4]): 168%
T/C (Mus musculus [26]): 143%
T/C (Mus musculus [17]): 143%
T/C (Mus musculus [5]): 60%
T/C (Mus musculus [7]): 261%
Average survival (days) (Mus musculus [27]): 13.8
Average survival (days) (Mus musculus [28]): 5.8
Average survival (days) (Mus musculus [29]): 25.2

CC1C(=O)O[C@@H]2C[C@@H](C)[C@@H]3CCC(=O)[C@@]3(C)[C@@H](OC(=O)CC(=O)O[C@H]3[C@@H]4C(C)C(=O)O[C@@H]4C[C@@H](C)[C@@H]4CCC(=O)[C@]43C)[C@H]12 (stereo partly drawn)
Average survival (days) (Mus musculus [30]): 11.1
T/C (Mus musculus [7]): 115%
T/C (Mus musculus [31]): 122%
Average survival (days) (Mus musculus [32]): 11.8

O=C(O)CCC(=O)O [SUCCINIC ACID]
T/C (Mus musculus [5]): 111%

C=C1C(=O)O[C@@H]2C[C@@H](C)[C@@H]3CCC(=O)[C@@]3(C)[C@@H](OC(=O)CC(=O)O[C@H]3[C@@H]4C(=C)C(=O)O[C@@H]4C[C@@H](C)[C@@H]4CCC(=O)[C@]43C)[C@H]12
T/C (Mus musculus [33]): 137%
T/C (Mus musculus [17]): 122%
Average survival (days) (Mus musculus [34]): 11.8
Average survival (days) (Mus musculus [35]): 13.2

C=C1C(=O)O[C@@H]2C[C@@H](C)[C@@H]3CCC(=O)[C@@]3(C)[C@@H](O)[C@H]12
T/C (Mus musculus [5]): 110%
Average survival (days) (Mus musculus [36]): 10.6

CCOC(=O)CC(=O)OCC [MALONIC ACID DIETHYL ESTER]
T/C (Mus musculus [5]): 114%
Average survival (days) (Mus musculus [37]): 11
